These results are taken from patent US20120172344A1, “INSULIN-PRODUCING CELL INDUCER, GLUCOSE INTAKE ENHANCER, AND THERAPEUTIC AGENT FOR DIABETES OR DIABETES COMPLICATIONS” (KYUSHU UNIVERSITY, NATIONAL UNIVERSITY CORPORATION, priority 2009, published 2012).

The subject of the test is Tg23 mice. In words: Experimental Example 4: blood glucose, blood parameters, food consumption and oral glucose tolerance test. It is filed as in vivo, mouse. To be noted: for blood glucose level: Tg23 mice 11 weeks of age. Here is the method: Blood glucose levels were measured by an enzyme-electrode method with ONE TOUCH UltraVue (Johnson & Johnson K.K.) on whole blood taken from tail veins of subject animals.
Immediately before collecting organs, blood parameters were measured using various methods and measurement kits described below in blood collected from the hearts of animals anesthetized with nembutal.
(c) Blood urea nitrogen (BUN): Urease UV method,
(d) Aspartate aminotransferase (AST) and alanine aminotransferase (ALT): JSCC standardization method,
(e) Serum insulin concentration: Enzyme-linked immunosorbent assay kit (Morinaga Institute of Biological Science),
(f) Serum glucagon concentration: YK142 Mouse […] EIA kit (Yanaihara Institute Inc.),
(g) Total serum cholesterol level: Enzymatic assay reagent (Wako Pure Chemical Industries),
After a 16-hour fast, mice were administered with glucose (1 g/kg of body weight) by gavage. Blood samples were collected from the tail vein at 0, 15, 30, 60, 90, and 120 minutes after the oral administration, and blood glucose levels were measured. In addition, blood samples were collected from the tail vein in a similar manner at 0, 15, and 30 minutes after the oral administration, and serum insulin concentrations were measured.
Subject mice were individually housed in metabolic cages for four days to assess food consumption (g/24 h) and water consumption (ml/24 h). During measurement, food and water were supplied to the mice ad libitum. Measurements were repeated three times for each group.
Tg23 mice (11 weeks of age) were divided into four groups (each group: n=4 to 10): an estradiol administration group (E only group), a testectomy group (Tx only group), a testectomy-and-estradiol administration group (Tx+E group), and a control group (Tg group). For E only group, sham surgery of testectomy (Tx) was performed, and a single pellet of 17β-estradiol (E) was subcutaneously administered at the nape of the neck. […] For Tx+E group, testectomy was performed, and a single pellet of 17β-estradiol was subcutaneously administered at the nape of the neck.
Then, blood glucose levels (mg/dl) were measured every week for E only group, Tx only group, Tx+E group, and Tg group, and wild-type mice (WT). In addition, measurements were performed with Tx+E group, Tg group, and wild-type mice (WT), for serum insulin concentrations (pg/mL), serum glucagon concentrations (pg/mL), blood urea nitrogen (BUN) concentrations (mg/dL), total serum cholesterol levels ([…]), aspartate aminotransferase (AST)/alanine aminotransferase (ALT), and food consumption per day (g/day). Furthermore, oral glucose tolerance test was performed, and changes in blood glucose level and serum insulin concentration over time were measured.

Setting [1] is: Tx+E mice, glucose 1 g/kg by gavage after 16-hour fast.

With `C[C@]12CC[C@@H]3c4ccc(O)cc4CC[C@H]3[C@@H]1CC[C@@H]2O` [estradiol, 17β-estradiol], the blood glucose level entry (E only group (sham surgery + 17β-estradiol pellet s.c.)) is “effective for reducing blood glucose level”. Also, the blood glucose level entry (Tx+E group (testectomy + 17β-estradiol pellet s.c.)) is “effective for reducing blood glucose level”. For the setting “Tx+E mice”, the AST/ALT result was “returned to normal”, the “blood urea nitrogen (BUN)” value is “returned to normal”, the “food consumption per day” value is “returned to normal” and the serum glucagon entry is given as “returned to normal”. Further, for the setting “Tx+E mice”, the serum insulin level result was “largely increased” and the total serum cholesterol entry is “returned to normal”. For the same compound, under setting [1], the “blood glucose level in oral glucose tolerance test” value is “returned to basal level after a time point of 180 minutes” and the “insulin secretion in oral glucose tolerance test” value is on record as “increased”.
